Measurements from paper PMC12700101 (2025).

Experiments:
Assay in all cases: fluorescence titration (intramolecular strand displacement)
Details in all cases: 6 mM MgCl2; apparent; 10 mM Tris-HCl pH 7.5, 25 °C
[1] = test system: 25-7 ATP ISD Cy3–BHQ-1 (DNA, aptamer) CACCTGGGGGAGTATTGCGGAGGAAGGTTTTTCCAGGTG
[2] = test system: 25-7 ATP ISD Cy3–Dab (DNA, aptamer, dabcyl-5-methyl-dC at 40 (3' end)) CACCTGGGGGAGTATTGCGGAGGAAGGTTTTTCCAGGTGC
[3] = test system: 25-7 ATP ISD FAM–BHQ-1 (DNA, aptamer) CACCTGGGGGAGTATTGCGGAGGAAGGTTTTTCCAGGTG
[4] = test system: 25-7 ATP ISD FAM–Dab (DNA, aptamer, dabcyl-5-methyl-dC at 40 (3' end)) CACCTGGGGGAGTATTGCGGAGGAAGGTTTTTCCAGGTGC

Kd [1]: 460 ± 65 µM | Kd [2]: 390 ± 83 µM | Kd [3]: 1800 ± 1700 µM | Kd [4]: 1300 ± 600 µM
SMILES: Nc1ncnc2c1ncn2[C@@H]1O[C@H](COP(=O)(O)OP(=O)(O)OP(=O)(O)O)[C@@H](O)[C@H]1O
